According to ChEMBL document CHEMBL5465560, “Selectivity Literature for EUbOPEN Chemogenomic Library” (2024):
Values belong to the compound of their own block, whether it stands above or below them.

Assays:
[1] = target: Cyclin-dependent kinase 9 (Homo sapiens, UniProt P50750); assay: Selectivity interaction (Ambit KINOMEscan and KiNATiv profiling in Jurkat cells) EUB0000090b CDK9; format: cell-based; conditions: at 1 µM
[2] = target: T1, Tyrosine-protein kinase ZAP-70 (Homo sapiens) (UniProt P43403); assay: Selectivity interaction (KinomeScan (DiscoverX)) EUB0001079a ZAP70; conditions: at 1 µM
T1 sequence (whole entry): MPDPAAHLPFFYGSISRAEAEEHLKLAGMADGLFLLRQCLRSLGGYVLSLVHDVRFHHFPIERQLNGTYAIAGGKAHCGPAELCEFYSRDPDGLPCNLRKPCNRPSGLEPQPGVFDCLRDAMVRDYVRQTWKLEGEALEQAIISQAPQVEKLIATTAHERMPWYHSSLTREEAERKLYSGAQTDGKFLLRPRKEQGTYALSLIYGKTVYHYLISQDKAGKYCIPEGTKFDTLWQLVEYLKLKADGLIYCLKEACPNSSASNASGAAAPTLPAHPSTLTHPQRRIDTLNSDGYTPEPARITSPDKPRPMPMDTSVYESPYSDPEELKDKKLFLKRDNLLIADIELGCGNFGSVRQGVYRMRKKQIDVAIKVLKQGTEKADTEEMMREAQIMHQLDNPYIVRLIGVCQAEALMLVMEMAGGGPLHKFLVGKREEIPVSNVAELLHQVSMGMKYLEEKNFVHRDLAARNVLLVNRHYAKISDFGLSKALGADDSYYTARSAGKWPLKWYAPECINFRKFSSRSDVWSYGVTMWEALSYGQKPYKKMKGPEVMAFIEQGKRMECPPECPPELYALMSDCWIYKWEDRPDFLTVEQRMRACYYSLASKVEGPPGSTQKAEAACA

[3] = system: Epidermal growth factor receptor (Homo sapiens), P00533 [UNDEFINED MUTATION]; assay: Selectivity interaction (KinomeScan (DiscoverX)) EUB0001619a EGFR; conditions: at 1 µM
Epidermal growth factor receptor (Homo sapiens), P00533 [UNDEFINED MUTATION], sequence (P00533 whole entry, looked up, change not shown): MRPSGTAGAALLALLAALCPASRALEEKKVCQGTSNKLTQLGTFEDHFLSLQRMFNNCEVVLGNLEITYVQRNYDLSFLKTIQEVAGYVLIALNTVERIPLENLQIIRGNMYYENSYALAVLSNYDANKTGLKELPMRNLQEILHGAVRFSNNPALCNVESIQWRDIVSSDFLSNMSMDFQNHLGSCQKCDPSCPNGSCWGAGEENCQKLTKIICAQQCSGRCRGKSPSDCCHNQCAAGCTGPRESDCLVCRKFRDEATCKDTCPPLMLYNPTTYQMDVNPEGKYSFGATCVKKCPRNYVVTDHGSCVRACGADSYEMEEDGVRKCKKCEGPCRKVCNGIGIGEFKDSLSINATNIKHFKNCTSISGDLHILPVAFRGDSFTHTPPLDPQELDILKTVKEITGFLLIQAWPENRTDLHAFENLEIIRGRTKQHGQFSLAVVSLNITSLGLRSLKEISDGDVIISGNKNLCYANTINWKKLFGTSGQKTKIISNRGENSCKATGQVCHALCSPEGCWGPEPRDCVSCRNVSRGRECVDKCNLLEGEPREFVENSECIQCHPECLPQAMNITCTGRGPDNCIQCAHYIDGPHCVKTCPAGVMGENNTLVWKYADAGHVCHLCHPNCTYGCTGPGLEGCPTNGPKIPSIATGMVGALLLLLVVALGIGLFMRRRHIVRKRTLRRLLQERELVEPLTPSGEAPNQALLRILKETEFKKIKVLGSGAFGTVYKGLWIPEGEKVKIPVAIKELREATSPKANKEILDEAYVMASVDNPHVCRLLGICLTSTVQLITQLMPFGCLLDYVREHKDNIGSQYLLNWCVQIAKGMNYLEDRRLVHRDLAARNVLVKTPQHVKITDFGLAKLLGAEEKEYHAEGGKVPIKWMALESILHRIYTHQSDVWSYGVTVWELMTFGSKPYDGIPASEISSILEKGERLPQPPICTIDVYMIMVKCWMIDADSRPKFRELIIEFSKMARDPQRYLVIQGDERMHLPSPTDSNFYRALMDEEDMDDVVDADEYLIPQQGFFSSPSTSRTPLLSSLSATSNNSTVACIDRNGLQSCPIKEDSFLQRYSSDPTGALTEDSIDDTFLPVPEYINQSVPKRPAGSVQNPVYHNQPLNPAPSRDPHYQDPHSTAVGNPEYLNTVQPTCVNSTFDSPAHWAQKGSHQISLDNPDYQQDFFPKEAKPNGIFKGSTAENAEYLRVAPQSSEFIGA

[4] = target: Cyclin-dependent kinase 7/ cyclin H (Homo sapiens) (UniProt P51946+P50613); assay: Selectivity interaction (Upstate Kinase Profiler service (Millipore)) EUB0000056c CDK7; format: protein-complex assay; conditions: at 1 µM
[5] = target: Histone-lysine N-methyltransferase, H3 lysine-79 specific (Homo sapiens, UniProt Q8TEK3); conditions: at 10 µM
Histone-lysine N-methyltransferase, H3 lysine-79 specific, sequence (Q8TEK3 whole entry, looked up): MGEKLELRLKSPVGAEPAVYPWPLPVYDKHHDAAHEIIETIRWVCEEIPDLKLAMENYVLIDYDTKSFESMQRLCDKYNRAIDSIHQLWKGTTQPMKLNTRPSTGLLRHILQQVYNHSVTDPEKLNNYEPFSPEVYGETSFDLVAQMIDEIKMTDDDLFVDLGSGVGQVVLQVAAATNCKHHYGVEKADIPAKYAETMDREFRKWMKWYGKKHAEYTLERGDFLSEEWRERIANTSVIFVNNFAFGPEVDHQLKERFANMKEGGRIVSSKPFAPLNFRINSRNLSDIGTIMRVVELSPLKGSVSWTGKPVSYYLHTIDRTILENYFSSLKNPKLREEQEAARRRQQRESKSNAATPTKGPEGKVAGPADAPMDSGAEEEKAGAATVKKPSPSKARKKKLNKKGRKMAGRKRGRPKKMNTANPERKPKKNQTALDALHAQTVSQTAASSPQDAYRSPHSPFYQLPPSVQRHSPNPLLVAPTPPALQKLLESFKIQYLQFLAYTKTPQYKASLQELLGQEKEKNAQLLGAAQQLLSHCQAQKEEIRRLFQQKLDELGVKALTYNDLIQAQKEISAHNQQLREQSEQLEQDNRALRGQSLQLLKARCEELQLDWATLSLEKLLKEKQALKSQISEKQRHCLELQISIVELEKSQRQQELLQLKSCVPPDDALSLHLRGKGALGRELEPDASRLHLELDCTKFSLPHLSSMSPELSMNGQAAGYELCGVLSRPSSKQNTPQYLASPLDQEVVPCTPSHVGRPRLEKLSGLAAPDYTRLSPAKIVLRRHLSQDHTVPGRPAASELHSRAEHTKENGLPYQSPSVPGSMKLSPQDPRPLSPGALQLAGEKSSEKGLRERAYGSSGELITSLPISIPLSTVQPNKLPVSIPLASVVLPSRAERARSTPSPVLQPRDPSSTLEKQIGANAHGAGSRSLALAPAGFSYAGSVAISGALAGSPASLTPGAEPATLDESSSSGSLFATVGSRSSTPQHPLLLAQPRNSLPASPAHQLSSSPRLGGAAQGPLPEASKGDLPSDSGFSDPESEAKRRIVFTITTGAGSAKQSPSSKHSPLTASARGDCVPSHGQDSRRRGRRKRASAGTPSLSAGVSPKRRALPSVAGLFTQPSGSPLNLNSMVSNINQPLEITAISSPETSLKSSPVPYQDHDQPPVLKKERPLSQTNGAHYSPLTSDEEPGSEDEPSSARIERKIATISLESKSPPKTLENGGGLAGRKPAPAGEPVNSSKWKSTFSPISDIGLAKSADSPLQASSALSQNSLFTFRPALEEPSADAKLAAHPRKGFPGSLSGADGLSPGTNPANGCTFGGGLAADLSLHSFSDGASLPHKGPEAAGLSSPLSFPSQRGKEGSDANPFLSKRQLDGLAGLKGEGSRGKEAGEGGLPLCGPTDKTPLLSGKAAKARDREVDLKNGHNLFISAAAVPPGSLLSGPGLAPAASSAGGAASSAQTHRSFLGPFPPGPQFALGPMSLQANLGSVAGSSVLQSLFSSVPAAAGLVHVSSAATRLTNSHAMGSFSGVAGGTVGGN

[6] = target: T2, Beta-adrenergic receptor kinase 1 (Homo sapiens) (UniProt P25098); assay: Selectivity interaction (Kinase panel (KiNativ target engagement assay in Jurkat cells)) EUB0001635a ADRBK1; format: cell-based; conditions: Selectivity number of off-targets 0.0, Selectivity number of targets 233.0, Source Knowledge https://www.sciencedirect.com/science/article/pii/S2451945619300674?via%3Dihub, at 1 µM
T2 sequence (whole entry): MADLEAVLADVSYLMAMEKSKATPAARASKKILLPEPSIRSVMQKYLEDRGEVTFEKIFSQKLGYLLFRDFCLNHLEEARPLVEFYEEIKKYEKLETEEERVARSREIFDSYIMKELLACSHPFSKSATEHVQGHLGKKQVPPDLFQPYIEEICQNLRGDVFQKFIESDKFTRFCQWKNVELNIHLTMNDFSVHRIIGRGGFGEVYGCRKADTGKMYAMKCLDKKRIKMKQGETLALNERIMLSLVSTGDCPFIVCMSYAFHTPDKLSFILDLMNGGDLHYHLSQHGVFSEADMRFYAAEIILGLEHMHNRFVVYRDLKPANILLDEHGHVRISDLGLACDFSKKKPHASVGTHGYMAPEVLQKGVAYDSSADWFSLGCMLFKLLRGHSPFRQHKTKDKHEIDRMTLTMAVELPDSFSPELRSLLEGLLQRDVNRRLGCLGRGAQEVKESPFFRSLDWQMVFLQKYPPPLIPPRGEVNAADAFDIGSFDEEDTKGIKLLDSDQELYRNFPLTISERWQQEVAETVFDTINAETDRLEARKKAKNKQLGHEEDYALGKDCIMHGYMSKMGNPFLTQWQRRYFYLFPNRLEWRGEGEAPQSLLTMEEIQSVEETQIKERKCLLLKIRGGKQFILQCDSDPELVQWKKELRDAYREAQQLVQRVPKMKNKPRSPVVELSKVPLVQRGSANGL

[7] = target: Mitogen-activated protein kinase kinase kinase 20 (Homo sapiens) (UniProt Q9NYL2); conditions: at 10 µM
Mitogen-activated protein kinase kinase kinase 20 (Homo sapiens), sequence (Q9NYL2 2-800 limits assumed): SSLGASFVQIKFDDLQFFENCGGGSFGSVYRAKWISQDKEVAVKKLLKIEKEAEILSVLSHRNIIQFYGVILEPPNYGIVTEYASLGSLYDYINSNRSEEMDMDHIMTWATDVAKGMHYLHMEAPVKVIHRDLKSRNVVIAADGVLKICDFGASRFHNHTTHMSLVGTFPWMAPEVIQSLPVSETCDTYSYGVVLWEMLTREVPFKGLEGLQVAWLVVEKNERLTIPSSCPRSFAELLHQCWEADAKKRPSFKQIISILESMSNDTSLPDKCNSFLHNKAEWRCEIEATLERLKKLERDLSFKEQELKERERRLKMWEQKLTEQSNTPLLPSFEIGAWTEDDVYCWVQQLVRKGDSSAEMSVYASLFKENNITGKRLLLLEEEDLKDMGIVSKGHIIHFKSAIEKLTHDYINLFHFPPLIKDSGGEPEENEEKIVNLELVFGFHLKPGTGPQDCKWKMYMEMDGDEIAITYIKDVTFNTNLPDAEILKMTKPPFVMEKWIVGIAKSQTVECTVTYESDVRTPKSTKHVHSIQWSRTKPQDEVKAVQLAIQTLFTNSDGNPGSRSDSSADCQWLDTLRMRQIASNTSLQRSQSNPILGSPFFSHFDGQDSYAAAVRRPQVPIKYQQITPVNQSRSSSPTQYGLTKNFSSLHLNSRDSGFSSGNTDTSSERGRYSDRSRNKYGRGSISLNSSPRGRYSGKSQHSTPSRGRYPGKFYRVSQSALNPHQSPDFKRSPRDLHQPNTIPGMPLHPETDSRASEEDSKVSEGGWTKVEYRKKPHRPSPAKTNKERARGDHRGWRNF

[8] = target: Casein kinase II subunit alpha' (Homo sapiens) (UniProt P19784); assay: Selectivity interaction (KinomeScan (DiscoverX)) EUB0001049a CSNK2A2; conditions: at 1 µM
Casein kinase II subunit alpha' (Homo sapiens), sequence (P19784 whole entry, looked up): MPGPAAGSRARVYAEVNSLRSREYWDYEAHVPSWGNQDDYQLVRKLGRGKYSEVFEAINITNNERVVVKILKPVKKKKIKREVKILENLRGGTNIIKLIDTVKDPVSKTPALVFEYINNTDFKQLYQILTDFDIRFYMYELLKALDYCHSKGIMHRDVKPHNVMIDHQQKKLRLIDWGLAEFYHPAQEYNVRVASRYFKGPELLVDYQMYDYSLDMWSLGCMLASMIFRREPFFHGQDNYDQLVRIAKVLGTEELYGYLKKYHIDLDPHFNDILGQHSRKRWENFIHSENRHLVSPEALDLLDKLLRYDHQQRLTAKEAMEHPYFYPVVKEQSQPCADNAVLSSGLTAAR

[9] = target: Delta-type opioid receptor (Homo sapiens, UniProt P41143); assay: Selectivity interaction (Opiate Delta receptor assay, human recombinant ) EUB0000877a OPRD1
[10] = target: T3, Ephrin type-A receptor 3 (Homo sapiens) (UniProt P29320); assay: Selectivity interaction (KinomeScan (DiscoverX)) EUB0000092b EPHA3; conditions: at 10 µM
T3 sequence (whole entry): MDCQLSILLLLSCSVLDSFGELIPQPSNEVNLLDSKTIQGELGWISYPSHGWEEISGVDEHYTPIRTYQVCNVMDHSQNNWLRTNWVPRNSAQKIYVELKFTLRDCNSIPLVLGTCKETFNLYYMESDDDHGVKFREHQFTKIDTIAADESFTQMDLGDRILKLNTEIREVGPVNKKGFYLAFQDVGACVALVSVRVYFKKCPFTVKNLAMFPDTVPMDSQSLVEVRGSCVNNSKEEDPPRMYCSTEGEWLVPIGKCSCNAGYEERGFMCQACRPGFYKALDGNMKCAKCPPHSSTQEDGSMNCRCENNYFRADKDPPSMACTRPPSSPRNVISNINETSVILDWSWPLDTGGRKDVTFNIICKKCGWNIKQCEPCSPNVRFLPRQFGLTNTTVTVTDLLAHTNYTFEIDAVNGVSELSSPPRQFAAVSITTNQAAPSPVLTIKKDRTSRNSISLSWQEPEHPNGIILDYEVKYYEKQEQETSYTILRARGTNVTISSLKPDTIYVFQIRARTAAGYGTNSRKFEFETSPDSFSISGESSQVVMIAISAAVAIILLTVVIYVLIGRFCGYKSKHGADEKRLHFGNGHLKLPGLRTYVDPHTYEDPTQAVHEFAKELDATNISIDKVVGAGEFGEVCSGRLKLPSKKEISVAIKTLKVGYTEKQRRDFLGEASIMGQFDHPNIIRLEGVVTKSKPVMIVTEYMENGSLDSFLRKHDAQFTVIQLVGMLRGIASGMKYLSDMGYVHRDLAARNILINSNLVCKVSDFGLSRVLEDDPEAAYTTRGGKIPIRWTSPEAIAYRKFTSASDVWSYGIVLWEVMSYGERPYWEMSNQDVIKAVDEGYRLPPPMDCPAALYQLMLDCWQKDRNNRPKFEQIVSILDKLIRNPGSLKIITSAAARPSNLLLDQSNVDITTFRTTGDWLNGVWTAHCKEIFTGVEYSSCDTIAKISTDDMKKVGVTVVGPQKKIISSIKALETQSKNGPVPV

[11] = target: Activin receptor type-2A (Homo sapiens) (UniProt P27037); assay: Selectivity interaction (LanthaScreen Eu Kinase Binding Assay) EUB0001632a ACVR2A; conditions: at 10 µM
Activin receptor type-2A (Homo sapiens), sequence (P27037 whole entry): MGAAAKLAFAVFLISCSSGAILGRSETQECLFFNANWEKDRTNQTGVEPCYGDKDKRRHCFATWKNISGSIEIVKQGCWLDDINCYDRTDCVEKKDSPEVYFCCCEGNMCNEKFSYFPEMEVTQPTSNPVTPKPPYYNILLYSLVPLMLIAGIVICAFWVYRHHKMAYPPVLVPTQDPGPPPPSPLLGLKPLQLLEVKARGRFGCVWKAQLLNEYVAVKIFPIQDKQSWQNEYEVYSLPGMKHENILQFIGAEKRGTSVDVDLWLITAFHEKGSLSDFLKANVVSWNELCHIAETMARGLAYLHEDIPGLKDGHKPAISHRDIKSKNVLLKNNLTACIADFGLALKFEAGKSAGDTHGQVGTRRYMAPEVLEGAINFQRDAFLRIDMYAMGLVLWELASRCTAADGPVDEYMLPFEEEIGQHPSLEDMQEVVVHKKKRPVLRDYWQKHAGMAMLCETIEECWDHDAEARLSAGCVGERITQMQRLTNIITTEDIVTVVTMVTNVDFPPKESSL

Cyclin-dependent kinase 9, sequence (P50750 whole entry): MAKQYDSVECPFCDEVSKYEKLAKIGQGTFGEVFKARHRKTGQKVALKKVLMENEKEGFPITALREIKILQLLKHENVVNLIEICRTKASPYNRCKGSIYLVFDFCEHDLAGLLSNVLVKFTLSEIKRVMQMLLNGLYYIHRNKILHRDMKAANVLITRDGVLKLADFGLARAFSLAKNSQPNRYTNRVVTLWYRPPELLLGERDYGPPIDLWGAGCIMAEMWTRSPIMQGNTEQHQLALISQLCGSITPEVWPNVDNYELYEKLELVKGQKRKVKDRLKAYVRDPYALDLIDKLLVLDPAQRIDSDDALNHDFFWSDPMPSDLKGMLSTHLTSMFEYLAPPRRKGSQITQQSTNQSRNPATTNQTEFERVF

SMILES: CN(C)C/C=C/C(=O)Nc1ccc(C(=O)N2CCCC(Nc3ncc(Cl)c(-c4c[nH]c5ccccc45)n3)C2)cc1 (stereo unspecified)
% of control [1]: 58%

SMILES: Nc1cnc(N2CCc3cc(S(=O)(=O)Nc4c(F)cc(Cl)cc4F)cc(N4CCCC4=O)c32)nc1 [TP-020n]
% of control [2]: 85%

SMILES: N#Cc1cccc(-c2c[nH]c3ncnc(N4CCOCC4)c23)c1
% of control [3]: 100%

% of inhibition [4]: 5%
SMILES: Cc1ccc(-c2ccc3c(ccc4sc5c(c43)NC[C@@H](C)NC5=O)n2)cn1

% activity [5]: > 90%
SMILES: CNCCN1CCC(c2cc(CN(C)C(=O)c3cccc(Oc4ccccc4)c3)ccn2)CC1

SMILES: C=CC(=O)Nc1ccc(C(=O)Nc2[nH]nc3c2CN(C(=O)N[C@H](CN(C)C)c2ccccc2)C3(C)C)cc1
% of engagement [6]: -2.6%

SMILES: Cc1cc([C@@H](C)Nc2ccccc2C(=O)O)c2nc(N3CCOCC3)cc(=O)n2c1 [AZD-6482]
% of control [7]: 100%

SMILES: COc1cc(Nc2nc(C)cc(-c3cnn4nc(OC)ccc34)n2)cc(C(F)(F)F)c1
% of control [8]: 59%

IC50 [9]: > 30 µM
SMILES: CCC(=O)N1CC[C@H](Nc2ncnc3c2CN(c2cnc(OC)c(C(F)(F)F)c2)CC3)C1 [LENIOLISIB]

SMILES: CCC(=O)N1CCN(c2ccc(-n3c(=O)ccc4cnc5ccc(-c6cnc7ccccc7c6)cc5c43)cc2C(F)(F)F)CC1
% of control [10]: 70%

% of inhibition [11]: -39.5%
SMILES: Cn1cc(-n2cnc3c(NCc4nc5cc(Cl)c(Cl)cc5[nH]4)nc(N4CCOCC4)nc32)cn1
